Reference: patent publication US5618812A, “Benzodiazepine derivatives” (Merck Sharp & Dohme, Ltd., priority 1992, dated 1997)
Structures can show the parent of a compound that is named as a salt. Where two headings read alike, the source gives them in different places.

Tests used:
CCK-A = molecular target: T1, CCK-A (Rattus norvegicus, UniProt P30551); assay: biochemical; assay type: binding
T1 sequence (P30551 1-444): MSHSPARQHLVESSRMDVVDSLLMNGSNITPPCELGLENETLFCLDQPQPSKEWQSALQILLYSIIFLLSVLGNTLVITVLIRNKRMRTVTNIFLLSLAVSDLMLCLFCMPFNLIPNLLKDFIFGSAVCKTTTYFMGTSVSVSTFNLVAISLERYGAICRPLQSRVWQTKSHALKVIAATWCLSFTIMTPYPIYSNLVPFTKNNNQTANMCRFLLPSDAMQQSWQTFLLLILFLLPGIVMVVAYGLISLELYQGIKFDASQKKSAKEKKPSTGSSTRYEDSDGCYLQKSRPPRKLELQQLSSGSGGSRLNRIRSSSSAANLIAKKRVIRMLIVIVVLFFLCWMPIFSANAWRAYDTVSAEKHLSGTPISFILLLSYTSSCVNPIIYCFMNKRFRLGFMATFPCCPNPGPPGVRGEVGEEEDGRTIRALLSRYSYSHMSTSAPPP
Protocol: (§1) The CCK-A and CCK-B antagonising activity of the compounds described herein was evaluated using the assays described in published European patent application no. 0514133. The method essentially involves determining the concentration of the test compound required to displace 50% of the specific ^125 I-CCK from rat pancreas (CCK-A) or guinea pig brain (CCK-B).

CCK-B = molecular target: T2, CCK-B (Cavia porcellus, UniProt H0VZC5); assay: displacement of specific 125I-CCK from guinea pig brain (CCK-B receptor binding)
T2 construct: guinea pig brain (CCK-B); from tissue; host or cells: guinea pig brain
T2 sequence (H0VZC5 1-426): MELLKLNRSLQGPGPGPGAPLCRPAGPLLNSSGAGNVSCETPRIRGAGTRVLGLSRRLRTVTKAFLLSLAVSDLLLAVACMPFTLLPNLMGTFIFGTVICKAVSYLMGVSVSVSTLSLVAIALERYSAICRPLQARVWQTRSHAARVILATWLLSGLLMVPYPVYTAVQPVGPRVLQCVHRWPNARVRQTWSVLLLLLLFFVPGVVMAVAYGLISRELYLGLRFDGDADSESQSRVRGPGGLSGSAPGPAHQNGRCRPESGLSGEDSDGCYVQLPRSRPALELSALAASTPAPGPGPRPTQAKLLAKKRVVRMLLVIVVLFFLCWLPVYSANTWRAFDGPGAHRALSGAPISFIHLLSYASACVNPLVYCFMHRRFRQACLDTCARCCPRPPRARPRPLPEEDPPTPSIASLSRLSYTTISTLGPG
Protocol: as §1, with “(CCK-B). The data in Table 1 were obtained for compounds of the Examples.” for “(CCK-B).”

[1] = rat pancreas (CCK-A), 125I-CCK, read-out: CCK RECEPTOR BINDING RESULTS IC50 125I-CCK Pancreas
[2] = read-out: CCK RECEPTOR BINDING RESULTS IC50 125I-CCK Brain
[3] = CCK RECEPTOR BINDING RESULTS IC50 125I-CCK Pancreas, rat pancreas (CCK-A), 125I-CCK
[4] = CCK RECEPTOR BINDING RESULTS IC50 125I-CCK Brain

| Compound | IC50 (CCK-A; [1]) [nM] | IC50 (CCK-B; [2]) [nM] | IC50 (CCK-A; [3]) [nM] | IC50 (CCK-B; [4]) [nM] | IC50 (CCK-A; read-out: CCK RECEPTOR BINDING RESULTS IC50 125I-CCK Pancreas) [nM] |
| --- | --- | --- | --- | --- | --- |
| CC1CCN(C2=NC(NC(=O)Nc3cccc(N4CCN(C)CC4)c3)C(=O)N(C)c3ccccc32)CC1 (racemic) [Example 96, N-[3(R,S)-2,3-Dihydro-1-methyl-5-(4-methylpiperidin-1-yl)-2-oxo-1H-1,4-benzodiazepin-3-yl]N'-[3-(N-methyl-N'-piperazinyl)phenyl]urea] | 94.1 | 148 |  |  |  |
| Cc1cccc(NC(=O)NC2N=C(N3C[C@H]4CCCC[C@H]4C3)c3ccccc3N(C)C2=O)c1 (relative stereo) [Example 57, N-[3(R,S)-2,3-Dihydro-1-methyl-5-(cis-octahydroisoindol-2-yl)-2-oxo-1H-1,4-benzodiazepin-3-yl]-N'-[3-methylphenyl]urea] | 12.3 | 4.6 |  |  |  |
| CN1C(=O)C(NC(=O)Nc2ccc3c(c2)CCC3)N=C(N2CCC(C)(C)CC2)c2ccccc21 (single isomer, unassigned) [5 (enantiomer A)] | 738 | 0.49 |  |  |  |
| CN1C(=O)C(NC(=O)Nc2ccc3c(c2)CCC3)N=C(N2CCC(C)(C)CC2)c2ccccc21 (single isomer, unassigned) [5 (enantiomer B)] | 7.8 | 14.8 |  |  |  |
| Cc1cccc(NC(=O)NC2N=C(N3CCC(C)CC3)c3ccccc3N(C)C2=O)c1 (single isomer, unassigned) [8 (enantiomer A)] | 981 | 0.35 |  |  |  |
| Cc1cccc(NC(=O)NC2N=C(N3CCC(C)CC3)c3ccccc3N(C)C2=O)c1 (single isomer, unassigned) [8 (enantiomer B)] | 2.61 | 23.2 |  |  |  |
| Cc1cccc(NC(=O)NC2N=C(N3CCC(C)(C)CC3)c3ccccc3N(C)C2=O)c1 (single isomer, unassigned) [10 (enantiomer A)] | 421 | 0.76 |  |  |  |
| Cc1cccc(NC(=O)NC2N=C(N3CCC(C)(C)CC3)c3ccccc3N(C)C2=O)c1 (single isomer, unassigned) [10 (enantiomer B)] | 0.42 | 12.6 |  |  |  |
| COC1CCN(C2=NC(NC(=O)Nc3cccc(C)c3)C(=O)N(C)c3ccccc32)CC1 (single isomer, unassigned) [14 (enantiomer A)] | 3220 | 11.6 |  |  |  |
| COC1CCN(C2=NC(NC(=O)Nc3cccc(C)c3)C(=O)N(C)c3ccccc32)CC1 (single isomer, unassigned) [14 (enantiomer B)] | 11.4 | 174 |  |  |  |
| C[C@@H]1CCC[C@H](C)N1C1=NC(NC(=O)Nc2ccc3c(c2)CCC3)C(=O)N(C)c2ccccc21 (single isomer, unassigned) [15 (enantiomer A)] | 1900 | 3.47 |  |  |  |
| C[C@@H]1CCC[C@H](C)N1C1=NC(NC(=O)Nc2ccc3c(c2)CCC3)C(=O)N(C)c2ccccc21 (single isomer, unassigned) [15 (enantiomer B)] | 163 | 75 |  |  |  |
| CCCN1C(=O)C(NC(=O)Nc2cccc(C)c2)N=C(N2CCC(C)CC2)c2ccccc21 (single isomer, unassigned) [18 (enantiomer A)] | 765 | 0.64 |  |  |  |
| Cc1cccc(NC(=O)NC2N=C(N3CCC(C(F)(F)F)CC3)c3ccccc3N(C)C2=O)c1 (single isomer, unassigned) [20 (enantiomer A)] | 3290 | 1.52 |  |  |  |
| Cc1cccc(NC(=O)NC2N=C(N3CCC(C(F)(F)F)CC3)c3ccccc3N(C)C2=O)c1 (single isomer, unassigned) [20 (enantiomer B)] | 40 | 44 |  |  |  |
| Cc1cccc(NC(=O)NC2N=C(N3CCCCC3(C)C)c3ccccc3N(C)C2=O)c1 (single isomer, unassigned) [22 (enantiomer A)] | 3670 | 32.9 |  |  |  |
| Cc1cccc(NC(=O)NC2N=C(N3[C@H](C)C[C@H](C)C[C@@H]3C)c3ccccc3N(C)C2=O)c1 (single isomer, unassigned) [24 (enantiomer A)] | 2250 | 0.927 |  |  |  |
| Cc1cccc(NC(=O)NC2N=C(N3[C@H](C)C[C@H](C)C[C@@H]3C)c3ccccc3N(C)C2=O)c1 (single isomer, unassigned) [24 (enantiomer B)] | 46 | 50 |  |  |  |
| Cc1cccc(NC(=O)NC2N=C(N3CCC(C)(C)CC3)c3ccccc3N(CC(F)(F)F)C2=O)c1 (single isomer, unassigned) [28 (enantiomer A)] | 239 | 27.8 |  |  |  |
| Cc1cccc(NC(=O)NC2N=C(N3CCC(C)(C)CC3)c3ccccc3N(CC(F)(F)F)C2=O)c1 (single isomer, unassigned) [28 (enantiomer B)] | 3.97 | 281 |  |  |  |
| CCN1C(=O)C(NC(=O)Nc2cccc(C)c2)N=C(N2CCC(C)(C)CC2)c2ccccc21 (single isomer, unassigned) [Example 30] | 347 | 0.36 |  |  |  |
| Cc1cccc(NC(=O)NC2N=C(N3CC4CCC(CC4)C3)c3ccccc3N(C)C2=O)c1 (single isomer, unassigned; (+)) [Example 34, (+)-N-[5-(3-Azabicyclo[3,2,2]nonan-3-yl)-2,3-dihydro-1-methyl-2-oxo-1H-1,4-benzodiazepin-3-yl]-N'-[3-methylphenyl]urea Hydrochloride] |  |  | 6.46 | 26.7 |  |
| CN1C(=O)C(NC(=O)Nc2cccc(F)c2)N=C(N2CC3CCC(CC3)C2)c2ccccc21 (single isomer, unassigned; (+)) [Example 37, (+)-N-[5-(3-Azabicyclo[3,2,2]nonan-3-yl)-2,3-dihydro-1-methyl-2-oxo-1H-1,4-benzodiazepin-3-yl]-N'-[3-fluorophenyl]urea Hydrochloride] |  |  | 9 | 144 |  |
| Cc1cccc(NC(=O)NC2N=C(N3CC4CCC(C4)C3)c3ccccc3N(C)C2=O)c1 (single isomer, unassigned; (+)) [Example 40, (+)-N-[5-(3-Azabicyclo[3,2,1]octan-3-yl)-2,3-dihydro-1-methyl-2-oxo-1H-1,4-benzodiazepin-3-yl]-N'-[3-methylphenyl]urea Hydrochloride] |  | 36.3 |  |  | 8.8 |
| Cc1ccc(NC(=O)NC2N=C(N3CC4CCC(CC4)C3)c3ccccc3N(C)C2=O)cc1F (single isomer, unassigned; (+)) [Example 46, (+)-N-[5-(3-Azabicyclo[3,2,2]nonan-3-yl)-2,3-dihydro-1-methyl-2-oxo-1H-1,4-benzodiazepin-3-yl]-N'-[3-fluoro-4-methylphenyl]urea Hydrochloride] |  |  | 23.7 | 20.1 |  |
| CN1C(=O)C(NC(=O)Nc2cccc(I)c2)N=C(N2CC3CCC(CC3)C2)c2ccccc21 (single isomer, unassigned; (+)) [Example 49, (+)-N-[5-(3-Azabicyclo[3,2,2]nonan-3-yl)-2,3-dihydro-1-methyl-2-oxo-1H-1,4-benzodiazepin-3-yl]-N'-[3-iodophenyl]urea] | 9.65 |  |  | 82.7 |  |
| Cc1cc(NC(=O)NC2N=C(N3CC4CCC(CC4)C3)c3ccccc3N(C)C2=O)ccc1F (single isomer, unassigned; (+)) [Example 54, (+)-N-[5-(3-Azabicyclo[3,2,2]nonan-3-yl)-2,3-dihydro-1-methyl-2-oxo-1H-1,4-benzodiazepin-3-yl]-N'-[4-fluoro-3-methylphenyl]urea Hydrochloride] |  |  | 8.4 | 68 |  |
| CN1C(=O)C(NC(=O)Nc2cccc(C(F)(F)F)c2)N=C(N2CC3CCC(CC3)C2)c2ccccc21 (single isomer, unassigned; (+)) [Example 56, (+)-N-[5-(3-Azabicyclo[3,2,2]nonan-3-yl)-2,3-dihydro-1-methyl-2-oxo-1H-1,4-benzodiazepin-3-yl]-N'-[3-trifluoromethylphenyl]urea Hydrochloride] | 62 | 47 |  |  |  |
